Measured values taken from patent EP0627009B1, “MACROCYCLIC LACTONES AND A PRODUCTIVE STRAIN THEREOF” (PFIZER INC., priority 1992, dated 1993).
In brackets after ≈: the same amount, converted by molar mass.

Key:
[1] = test system: human mixed lymphocyte reaction (MLR); assay: human mixed lymphocyte reaction (MLR) activity; type: cell-based; details: read-out: MLR activity(IC50, mg/ml)
Experimental: The measurement of the human MLR activity of the macrocyclic lactones of this invention carried out by standard procedures which are described in the literature (D. P. Dubey et al., in Manual of Clinical Laboratory Immunology, 3rd Ed., pp847-858, 1986). The cytotoxicities of the macrocyclic lactones were measured by the standard procedure (T. Mosmann, J., J. Immunol. Methods, 65, 55-63, 1983). The concentration of their cytotoxicities is several ten times higher than that of their MLR activities.

Candida albicans = assay: anti-Candida albicans activity, agar plate dilution method with paper disk, inhibition zone; type: cell-based; details: Concentration 40 mg/disk; paper disk 8 mm; agar medium for neomycin assay
Text: The paper disk (8 mm, Advantic) and agar medium for neomycin assay (Difco) were used in the tests. As the novel macrocyclic lactones inhibit the growth of Candida albicans, they have an antifungal activity.

SMILES: CO[C@H]1C[C@@H]2CC[C@@H](C)[C@@](O)(O2)C(=O)C(=O)N2CCCC[C@H]2C(=O)O[C@H]([C@H](C)C[C@@H]2CC[C@@H](O)[C@H](OC)C2)CC(=O)[C@H](C)/C=C(\C)[C@@H](O)[C@@H](OC)C(=O)[C@H](C)C[C@H](C)/C=C/C=C/C=C/1C [Rapamycin, rapamycin]
- IC50 [1]: 0.01 µg/mL (≈ 0.0109 µM)
- The diameter of inhibition zone (mm) (Candida albicans): 25 mm
